Read-outs that look alike come from different tables or passages of the source.
Key:
[1] = tested on: A431 skin cancer cells; assay: Antiproliferative activity, MTT test; type: cell-based, human; details: 72 h, normoxia
Excerpt: To evaluate the influence of CA inhibition on the antiproliferative activity, we selected five compounds 4b, f, m, n and 10 with different inhibition profiles against CA IX for in-depth testing on cancer cells with increased CA IX expression. The database www.proteinatlas.org (accessed on 13 October 2022) contains data on gene expression in various cell lines. According to the data obtained from this database, A431 cells express CA IX at a very high level, which distinguishes them from human cell lines belonging to other tissues [https://www.proteinatlas.org/ENSG00000107159-CA9/cell+line (accessed on 13 October 2022)]. A431 cells are skin cancer cells, and their growth has already been intensely analyzed in hypoxia. […] Moreover, Ren and colleagues described that hypoxia modulates cellular pathways in A431 cells, which are associated with radioresistance and enhanced migration. Given the observations described above, we were expecting to reveal the high antiproliferative activity of the selected compounds against skin cancer cells. […] In hypoxia, the activity of tested compounds was increased, but the 50% inhibition of growth was never achieved.
(§1) The MCF7 human breast, A431 human skin cancer cells and K562 (ATCC CCL-243) chronic myelogenous leukemia cells were obtained from the ATCC collection. The MDR subline K562/4 [77] […] The growth inhibitory activity of compounds was assessed by the MTT test based on the metabolism of the MTT reagent (3-[4,5-dimethylthiazol-2-yl]-2,5-diphenyltetrazolium bromide) (Applichem) in living cells, with modifications as described previously in [49]. […] Culture plates were gently shaken, and the absorbance was measured at 571 nm with a reference wavelength of 630 nm on a MultiScan reader (ThermoFisher, Waltham, MA, USA). The viability of the cells was expressed as a percentage of the control. Dose-response curves were analyzed by regression analysis using sigmoid curves (Log(concentration) vs. normalized absorbance).

[2] = biological target: T1, hCA I (Homo sapiens, UniProt P00915); assay: CA inhibition, stopped-flow CO2 hydration assay; type: biochemical; details: stopped-flow technique; mean from three assays
T1 construct: made in house
T1 sequence (P00915 whole entry): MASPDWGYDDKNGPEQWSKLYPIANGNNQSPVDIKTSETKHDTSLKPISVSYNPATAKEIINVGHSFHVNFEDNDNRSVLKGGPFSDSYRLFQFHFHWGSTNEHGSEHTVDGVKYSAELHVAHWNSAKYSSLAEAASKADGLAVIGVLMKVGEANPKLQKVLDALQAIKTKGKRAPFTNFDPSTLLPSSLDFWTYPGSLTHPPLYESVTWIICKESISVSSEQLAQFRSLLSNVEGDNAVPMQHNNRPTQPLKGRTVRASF
Procedure: (§2) The CO2 hydration activity of the four hCA isoforms was monitored using an Applied Photophysics stopped-flow instrument. Phenol red (at a concentration of 0.2 mM) was used as an indicator, working at the absorbance maximum of 557 nm, with 10 mM HEPES (pH 7.4) as a buffer, and 20 mM NaClO4 (for maintaining constant the ionic strength), following the initial rates of the CA-catalyzed CO2 hydration reaction for a period of 10–100 s. To determine the kinetic parameters by Lineweaver-Burk plots and the inhibition constants, a concentration of CO2 between 1.7 to 17 mM was used. At least six measurements of the original 5–10% reaction were used to assess the initial velocity for each inhibitor. The uncatalyzed rates were determined and detracted from the total observed rates. Stock inhibitor solutions (10–100 mM) were prepared in distilled-deionized water, and dilutions up to 0.1 nM were done with the buffer test. […] The inhibition constants were obtained by non-linear least-squares methods using PRISM 6 and the Cheng-Prusoff equation, as reported earlier, and represent the mean from at least three different determinations.

[3] = biological target: T2, hCA XII (Homo sapiens, UniProt O43570); assay: CA inhibition, stopped-flow CO2 hydration assay; type: biochemical; details: stopped-flow technique; mean from three assays
T2 construct: made in house
T2 sequence (O43570 25-354): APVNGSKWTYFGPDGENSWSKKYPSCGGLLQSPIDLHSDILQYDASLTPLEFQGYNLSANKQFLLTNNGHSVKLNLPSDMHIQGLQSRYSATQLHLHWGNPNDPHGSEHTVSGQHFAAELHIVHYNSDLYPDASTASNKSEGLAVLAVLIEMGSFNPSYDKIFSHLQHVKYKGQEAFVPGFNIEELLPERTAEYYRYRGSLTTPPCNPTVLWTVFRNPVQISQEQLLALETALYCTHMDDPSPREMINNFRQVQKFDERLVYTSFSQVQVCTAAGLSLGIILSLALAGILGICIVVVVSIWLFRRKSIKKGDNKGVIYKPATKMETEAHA
Procedure: as §2

[4] = biological target: T3, hCA II (Homo sapiens, UniProt P00918); assay: CA inhibition, stopped-flow CO2 hydration assay; type: biochemical; details: stopped-flow technique; mean from three assays
T3 construct: made in house
Procedure: as §2

[5] = biological target: T4, hCA IX (Homo sapiens, UniProt Q16790); assay: CA inhibition, stopped-flow CO2 hydration assay; type: biochemical; details: stopped-flow technique; mean from three assays
T4 construct: made in house
Procedure: as §2

[6] = tested on: MCF7 cells; assay: Antiproliferative activity, MTT test; type: cell-based; details: Homo sapiens, MTT assay after 72 h exposure
Procedure: A series of synthesized indoline-5-sulfonamides was tested on the MCF7 cancer cell line under normoxia and hypoxia using the MTT test.
The MDR subline K562/4 [77] (kind gift of Dr. Alexander Shtil, Blokhin N.N. National Medical Research Center of Oncology) was obtained by stepwise selection of K562 cells for survival under continuous exposure to Dox. This subline expresses the MDR1 gene and functional P-gp and is characterized by a high resistance index for Dox. […] Cells in the logarithmic phase of growth were used in the experiments. The growth inhibitory activity of compounds was assessed by the MTT test based on the metabolism of the MTT reagent (3-[4,5-dimethylthiazol-2-yl]-2,5-diphenyltetrazolium bromide) (Applichem) in living cells, with modifications as described previously in [49]. Compounds at different concentrations in 100 μL of the appropriate medium were added, and the cells were grown for 72 h. The hypoxia (1% O2) conditions were simulated in Binder multigas incubator, as described in [49]. After incubation with compounds, the medium was removed, the MTT reagent that was dissolved in the medium was added to the final concentration of 0.2 mg/mL to each well, and the incubation was performed for 2 h. Then the cell supernatants were removed, and purple formazan crystals were dissolved in 100% DMSO (350 μL per well). Culture plates were gently shaken, and the absorbance was measured at 571 nm with a reference wavelength of 630 nm on a MultiScan reader (ThermoFisher, Waltham, MA, USA). The viability of the cells was expressed as a percentage of the control. Dose-response curves were analyzed by regression analysis using sigmoid curves (Log(concentration) vs. normalized absorbance).
All results were reported as means ± SD. One-way analysis of variance was used for the analysis of data. Differences were defined as significant at p < 0.05. GraphPad Prism7 (GraphPad Software, San Diego, CA, USA) was used for the determination of the half-maximal inhibitory concentration (IC50) values.

[7] = tested on: K562/4 cells; assay: Reversal of chemoresistance to Dox, MTT test; type: cell-based, human
Excerpt: Earlier, Kopecka and colleagues have shown that CA XII can interact with P-gp and influence its activity. Subsequently, silencing or inhibition of CA XII by chemical agents may restore the sensitivity to Dox of resistant K562 and other tumor cells. Given the potent inhibition of 4f against CA XII and the activity of 4e against K562, we examined their ability to reverse the chemoresistance of K562/4 with P-gp to Dox.
The MCF7 human breast, A431 human skin cancer cells and K562 (ATCC CCL-243) chronic myelogenous leukemia cells were obtained from the ATCC collection. The MDR subline K562/4 [77] (kind gift of Dr. Alexander Shtil, Blokhin N.N. National Medical Research Center of Oncology) was obtained by stepwise selection of K562 cells for survival under continuous exposure to Dox. This subline expresses the MDR1 gene and functional P-gp and is characterized by a high resistance index for Dox. The MCF7 and A431 cells were cultured in standard 4.5 g/L glucose DMEM medium (Gibco) supplemented with 10% FCS (HyClone), 2 mM L-glutamine, 50 U/mL penicillin, 50 µg/mL streptomycin (PanEco), 100 µg/mL sodium pyruvate (Santa Cruz) at 37 °C, 5% CO2 and 80–85% humidity in NuAire incubator. Suspension myelogenous leukemia cells (K562, K562/4) were propagated in RPMI-1640 (PanEco) with 5% FCS (HyClone), 2 mM L-glutamine, 100 U/mL penicillin, and 100 µg/mL streptomycin at 37 °C, 5% CO2, and 80–85% humidity in Binder incubator. Cells in the logarithmic phase of growth were used in the experiments. The growth inhibitory activity of compounds was assessed by the MTT test based on the metabolism of the MTT reagent (3-[4,5-dimethylthiazol-2-yl]-2,5-diphenyltetrazolium bromide) (Applichem) in living cells, with modifications as described previously in [49]. Compounds at different concentrations in 100 μL of the appropriate medium were added, and the cells were grown for 72 h. The hypoxia (1% O2) conditions were simulated in Binder multigas incubator, as described in [49]. After incubation with compounds, the medium was removed, the MTT reagent that was dissolved in the medium was added to the final concentration of 0.2 mg/mL to each well, and the incubation was performed for 2 h. Then the cell supernatants were removed, and purple formazan crystals were dissolved in 100% DMSO (350 μL per well). Culture plates were gently shaken, and the absorbance was measured at 571 nm with a reference wavelength of 630 nm on a MultiScan reader (ThermoFisher, Waltham, MA, USA). The viability of the cells was expressed as a percentage of the control. Dose-response curves were analyzed by regression analysis using sigmoid curves (Log(concentration) vs. normalized absorbance).
Figure 6 Susceptibility of resistant K562/4 line to combinations of Dox (25 µM) with indoline-5-sulfonamides 4e and 4f. […]

[8] = tested on: K562 cells; assay: Antiproliferative activity, MTT test; type: cell-based, human
Excerpt: Next, we examined the activity of the whole series of indoline-5-sulfonamides against leukemia cell line K562.
as §1, with “[77] (kind gift of Dr. Alexander Shtil, Blokhin N.N. National Medical Research Center of Oncology) was obtained by stepwise selection of K562 cells for survival under continuous exposure to Dox. This subline expresses the MDR1 gene and functional P-gp and is characterized by a high resistance index for Dox.” for “[77]”

[9] = hypoxia (1% O2), read-out: IC50 against MCF7 Cells, Hypoxia
[10] = normoxia, read-out: IC50 against MCF7 Cells, Normoxia

NS(=O)(=O)c1ccc2c(c1)CCN2C(=O)c1cccc(F)c1 [Compound 4b, 1-(3-Fluorobenzoyl)indoline-5-sulfonamide]
inhibition of growth of A431 cells, normoxia [1]: least active | Ki [2]: 65.9 nM | Ki [3]: > 10000 nM | Ki [4]: 5.6 nM | Ki [5]: > 10000 nM | IC50 [6, 9]: > 50000 nM | IC50 [6, 10]: > 50000 nM | melting point: > 250 °C

COc1cc(C(=O)N2CCc3cc(S(N)(=O)=O)ccc32)cc(OC)c1OC [Compound 4m, 1-(3,4,5-Trimethoxybenzoyl)indoline-5-sulfonamide]
inhibition of growth of A431 cells, normoxia [1]: least active | Ki [2]: 49 nM | Ki [3]: 103 nM | Ki [4]: 3 nM | Ki [5]: > 10000 nM | IC50 [6, 9]: 36700 ± 3200 nM | IC50 [6, 10]: 29600 ± 2200 nM | melting point: 248 to 250 °C

NS(=O)(=O)c1ccc2c(c1)CCN2C(=O)c1c(F)c(F)c(F)c(F)c1F [Compound 4e, 1-(Perfluorobenzoyl)indoline-5-sulfonamide]
Ki [2]: 52.2 nM | Ki [3]: 127 nM | Ki [4]: 3.4 nM | Ki [5]: 1300 nM | effect of combination with Dox on viable K562/4 cells ([7]; combination with Dox (25 µM)): decline of viable K562/4 cells | cytotoxic activity against MDR subline K562/4 as monoagent ([7]; monoagent): low cytotoxic activity | IC50 [6, 9]: 20200 ± 2000 nM | IC50 [6, 10]: 29900 ± 2700 nM | melting point: 187 to 189 °C | concentration inhibiting growth of K562 cells [8]: 10 µM

— article PMC9783868, “Indoline-5-Sulfonamides: A Role of the Core in Inhibition of Cancer-Related Carbonic Anhydrases, Antiproliferative Activity and Circumventing of Multidrug Resistance” (Pharmaceuticals, 2022)
